# Data taken from patent publication US9243278B2, “Mechanotransduction by the synergistic action of heterotypic cell interactions” (Brown University, priority 2011, dated 2016).
# Entries after “also recorded” stand apart in the source; their conditions may differ.
# Tests used:
# NHFs and H35s = assay: self-sorting of fluorescently labeled NHFs and H35s in microtissues; type: cell-based, human, rat
# Procedure: For sorting experiments, NHFs and H35s were incubated with 2.5 μM CellTracker™ Red CMPTX and CellTracker™ Green CMFDA™ (Invitrogen, Carlsbad, Calif., USA), respectively, in serum free media for 30 minutes. After incubation, the dye was aspirated and the cells equilibrated in serum media for 1 hour prior to passing. For NHF^TGF-β1:H35 sorting experiments NHFs were incubated for 48 hours in DMEM with 10% FBS, 1% penn/strep and 5 ng/ml TGF-β1. After incubation the NHF^TGF-β1 and H35s were fluorescently labeled and passed as previously described.
# (§1) Convential view fluorescent and phase images were captured using Carl Zeiss Axio Observer Z1 with an AxioCam Mrm camera (Carl Zeiss MicroImaging, Thornwood, N.Y., USA). To capture side view images, a Mitutoyo FS-110 microscope was modified to lie on its back and a translational stage was added to hold samples. Samples were imaged in bright field through the eyepiece of the microscope. […]
# Using self sorting to identify drugs, TGF-β1 is a growth factor linked to fibrosis and well known for its ability to increase cell mediated contraction and synthesis of extracellular matrix proteins such as collagen. […] Also, as self-sorting proceeds the quantity of heterotypic interface decreases and the homotypic interface increases as cells partition. […]
# [1] = test system: normal human fibroblasts (NHF); assay: toroid-on-cone cell power assay, homotypic NHF toroids; type: cell-based
# Procedure: (§2) Toroid molds suitable for side view microcopy were designed as previously described (9). Toroid molds were designed using the computer aided design (CAD) software Solid Works (Solid Works Corporation, Concord, Mass., USA). The mold was designed with 12 features to create wells. Each feature is a rounded edged (350 μm in diameter) cylinder (1.1 mm) with a cone indent in the center. The slope of the central cone was 65° and it is 650 μm in diameter. CAD files were used to produce thermowax molds with a rapid prototyping machine (3D Systems Corporation, Valencia, Calif.).
# (§3) Wax molds were used to cast 13% polyacrylamide gels. Gels were removed from wax molds and transferred to six well culture plates. Each of the resulting wells is a circular trough confined by the hydrogel wall at the outer edge of the trough and by a conical peg on the inner edge of the trough. The gels were rinsed with fresh culture medium and then equilibrated overnight at 37° C. in 4 ml of DMEM supplemented with 1% penicillin/streptomycin (pen/strep). After equilibration, the medium was removed, and the gels were rinsed with fresh medium.
# NHFs (passage 4-10), derived from neonatal foreskins, and H35s (passage 5-11) were grown in T-175 flasks in DMEM with 10% FBS and 1% pen/strep at 37° C. and 10% CO2. Cells were removed from flasks using a standard trypsin process. Briefly, cells were exposed to 0.05% trypsin for 10 minutes, quenched with serum containing medium, spun down at 800 rpm for 6 minutes, resuspended in a known volume of medium, and counted using a hemocytometer. Cell solution (70 μl) was added to each hydrogel. After 30 minutes, 4 ml of fresh medium was added to each of the wells. After seeding, images of the samples were taken every 2 hours for about 8 hours. Pure NHF microtissues were seeded with about 10,500, about 21,000, about 25,000 or about 35,000 cells/well. Heterotypic microtissues were seeded at ratios of about 1:1, about 2:3, about 1:4; about 1:6, about 1:10, about 1:16, and about 1:20 (NHF:H35). The seeding per well for heterotypic samples was kept constant at about 21,000 cells/well. For TGF-β1 experiments, NHFs and H35s were incubated for 48 hours in DMEM with 10% FBS, 1% penn/strep and 5 ng/ml human recombinant TGF-β1 (Invitrogen, Carlsbad, Calif., USA), passed according to standard protocol, and seeded at about 21,000 cells/well. NHFs^TGF-β1 coseeded with H35s were seeded in DMEM with 10% FBS, 1% penn/strep without additional TGF-β1. […]
# (§4) Convential view fluorescent and phase images were captured using Carl Zeiss Axio Observer Z1 with an AxioCam Mrm camera (Carl Zeiss MicroImaging, Thornwood, N.Y., USA). To capture side view images, a Mitutoyo FS-110 microscope was modified to lie on its back and a translational stage was added to hold samples. Samples were imaged in bright field through the eyepiece of the microscope. ImageJ Software (NIH Rasband, W.S. USA) was used to measure the height of the toroid, the major radius, and the minor radius of the toroid.
# (§5) The range of power exerted by increasing numbers of NHFs (>3 fold) in a homotypic environment by seeding the cells into non-adhesive hydrogels with toroid recesses, each with a central cone (65° slope) was measured. Cells settled and formed cell-cell adhesions that drove the toroid shaped microtissue up the cone. The power necessary to move the NHF toroid up the cone as P=ΔW/Δt was calculated, where ΔW is work performed against gravity to move a toroid of a known mass to a given height, and Δt is the time over which the work is performed (9). […] Toroid power increased linearly as cell number increased, but power per NHF (cell power) was independent of cell number, with a peak cell power of 0.22±0.02 fJ/hr (2 hrs) and an average cell power (over all time points) of 0.16±0.03 fJ/hr.
# [2] = test system: rat hepatocyte cell line (H35); assay: toroid-on-cone cell power assay, homotypic H35 toroids; type: cell-based
# Procedure: as §2, §3
# (§6) NHFs (passage 4-10), derived from neonatal foreskins, and H35s (passage 5-11) were grown in T-175 flasks in DMEM with 10% FBS and 1% pen/strep at 37° C. and 10% CO2. Cells were removed from flasks using a standard trypsin process. Briefly, cells were exposed to 0.05% trypsin for 10 minutes, quenched with serum containing medium, spun down at 800 rpm for 6 minutes, resuspended in a known volume of medium, and counted using a hemocytometer. Cell solution (70 μl) was added to each hydrogel. After 30 minutes, 4 ml of fresh medium was added to each of the wells. After seeding, images of the samples were taken every 2 hours for about 8 hours. Pure NHF microtissues were seeded with about 10,500, about 21,000, about 25,000 or about 35,000 cells/well. Heterotypic microtissues were seeded at ratios of about 1:1, about 2:3, about 1:4; about 1:6, about 1:10, about 1:16, and about 1:20 (NHF:H35). The seeding per well for heterotypic samples was kept constant at about 21,000 cells/well. For TGF-β1 experiments, NHFs and H35s were incubated for 48 hours in DMEM with 10% FBS, 1% penn/strep and 5 ng/ml human recombinant TGF-β1 (Invitrogen, Carlsbad, Calif., USA), passed according to standard protocol, and seeded at about 21,000 cells/well. NHFs^TGF-β1 coseeded with H35s were seeded in DMEM with 10% FBS, 1% penn/strep without additional TGF-β1.
# To investigate the effect of paracrine factors, media from homotypic toroids containing about 10,500 H35s and from homotypic toroids containing about 10,500 NHFs was collected. The conditioned media was seeded about 10,500 NHFs with the media collected from the H35s and also seeded about 10,500 H35s with the media collected from the NHFs. Power was analyzed at four hours since this is the time enhanced power for heterotypic toroids which contained about 10,500 H35s and about 10,500 NHFs (1:1 samples).
# as §1, with “samples.” for “samples. Samples were imaged in bright field through the eyepiece of the microscope.”
# The range of power exerted by increasing numbers of NHFs (>3 fold) in a homotypic environment by seeding the cells into non-adhesive hydrogels with toroid recesses, each with a central cone (65° slope) was measured. […]
# [3] = test system: heterotypic toroids of NHFs and H35s; assay: toroid-on-cone cell power assay, heterotypic NHF:H35 toroids; type: cell-based, human, rat
# Procedure: as §2, §3, §6, §4, §5
# The data shown in Table 1 show heterotypic toroids have enhanced power. […]
# [4] = test system: 1:1 (NHF:H35) microtissues; details: cultured four hours, then overnight at 37° C. in 5 mM EDTA in PBS
# Procedure: To determine if extracellular calcium disintegrated the microtissues, 1:1 (NHF: H35) microtissues were cultured for 4 hours. Culture media was removed, and microtissues were washed with PBS, and then incubated overnight at 37° C. in 5 mM EDTA in PBS. Control samples were kept in regular culture media or PBS.
# To examine if enhanced power was transduced through cell-cell interactions 1:1 (NHF:H35) were cultured for four hours and then incubated in EDTA to destabilize the calcium dependent cell-cell adhesions. Control samples were kept in regular culture media or PBS.
# [5] = homotypic toroid 100% NHF^TGF-β
# [6] = H35^TGF-β1 homotypic toroid, 24 hours
compound,measurement,setting,value
transforming growth factor-β1 [TGF-β1],self-sorting of NHFs and H35s in heterotypic toroids,"NHFs and H35s; NHF^TGF-β1:H35 toroids (1:10), up to 24 hours",prevented sorting; also recorded: reduced; also recorded: sorting was eliminated
same,self-sorting of NHFs and H35s in spheroids,NHFs and H35s; mixes (1:1) of NHFs and H35s treated with TGF-β1,inhibited self-sorting
same,height of the NHF^TGF-β1 toroid relative to untreated NHFs,"[1]; 2 hours, NHFs treated 48 hours in 5 ng/ml TGF-β1",twice as far; also recorded: increased two fold
same,average cell power,[1]; NHF^TGF-β1,0.16 ± 0.21 fJ/h
same,peak cell power,"[1]; NHF^TGF-β1, 2 hrs",0.47 fJ/h
same,Toroid Power,"[1]; NHF^TGF-β1 homotypic toroid, two hours",9.82 ± 1.32 pJ/h
same,increase in NHF cell power in the homotypic environment,[1]; TGF-β treatment alone,about 1.9 fold
same,change in NHF cell power relative to untreated controls (in words),[1]; homotypic NHF toroids treated with TGF-β1,doubling in cell power; also recorded: increased only two fold; also recorded: doubled; also recorded: doubles cell power
same,Enhancement in NHF Cell Power,[1]; [5],0.23 fJ/hr/NHF
same,Toroid Power,[1]; [5],9.80 pJ/h
same,Enhancement in Toroid Power,[1]; homotypic toroid 100% NHF^TGF-β versus control,4.7 pJ/h
same,Fold Increase in NHF Cell Power,"[1]; homotypic toroid 100% NHF^TGF-β, effects of TGF-β alone",1.9x
same,Toroid Power,[2]; [6],0.45 ± 0.08 pJ/h
same,cell power,[2]; [6],0.022 ± 0.004 fJ/h
same,change in H35 power compared to untreated controls,[2]; homotypic H35 toroids treated with TGF-β1,doubled
same,Toroid Power,[2]; homotypic toroid 100% H35^TGF-β,0.45 pJ/h
same,Enhancement in Toroid Power,[2]; homotypic toroid 100% H35^TGF-β versus control,0.19 pJ/h
same,H35 has Enhanced Power,[3]; 1:1 (NHF^TGF-β:H35),0.11 fJ/hr per H35
same,NHF has Enhanced Power,[3]; 1:1 (NHF^TGF-β:H35),0.58 fJ/hr per NHF
same,Relative Increase in NHF Cell Power,[3]; 1:1 (NHF^TGF-β:H35),2.4x
same,Measured Toroid Power,"[3]; 1:1 (NHF^TGF-β:H35), at time of peak power, NHFs pretreated 48 hours with 5 ng/ml TGF-β1",6.05 pJ/h
same,Enhanced Toroid Power,"[3]; 1:1 (NHF^TGF-β:H35), measured minus projected",1.16 pJ/h
same,Projected Toroid Power,"[3]; 1:1 (NHF^TGF-β:H35), power per TGF-β treated NHF x number of NHFs",4.90 pJ/h
same,toroid height relative to respective control,[3]; 1:1 NHF^TGF-β1 mixed with untreated H35s,1.4 times
same,Enhanced Toroid Power,[3]; 1:10 (NHF^TGF-β:H35),4.41 pJ/h
same,H35 has Enhanced Power,[3]; 1:10 (NHF^TGF-β:H35),0.23 fJ/hr per H35
same,NHF has Enhanced Power,[3]; 1:10 (NHF^TGF-β:H35),5.30 fJ/hr per NHF
same,Projected Toroid Power,[3]; 1:10 (NHF^TGF-β:H35),0.89 pJ/h
same,Relative Increase in NHF Cell Power,[3]; 1:10 (NHF^TGF-β:H35),22.1x
same,Measured Toroid Power,"[3]; 1:10 (NHF^TGF-β:H35), peak power, combination of 6 and 8 hours",5.30 pJ/h
same,toroid height relative to respective control,[3]; 1:10 NHF^TGF-β1 mixed with untreated H35s,4.4 times
same,Enhanced Toroid Power,[3]; 1:20 (NHF^TGF-β:H35),3.63 pJ/h
same,H35 has Enhanced Power,[3]; 1:20 (NHF^TGF-β:H35),0.18 fJ/hr per H35
same,NHF has Enhanced Power,[3]; 1:20 (NHF^TGF-β:H35),4.13 fJ/hr per NHF
same,Projected Toroid Power,[3]; 1:20 (NHF^TGF-β:H35),0.47 pJ/h
same,Relative Increase in NHF Cell Power,[3]; 1:20 (NHF^TGF-β:H35),17.2x
same,Measured Toroid Power,"[3]; 1:20 (NHF^TGF-β:H35), at time of peak power",4.10 pJ/h
same,toroid height relative to respective control,[3]; 1:20 NHF^TGF-β1 mixed with untreated H35s,6.3 times
same,Enhancement in NHF Cell Power,[3]; 5%:95% (NHF^TGF-β:H35),4.13 fJ/hr/NHF
same,Enhancement in Toroid Power,[3]; 5%:95% (NHF^TGF-β:H35),3.63 pJ/h
same,Fold Increase in NHF Cell Power,[3]; 5%:95% (NHF^TGF-β:H35),17.2x
same,Toroid Power,[3]; 5%:95% (NHF^TGF-β:H35),4.10 pJ/h
same,Enhancement in NHF Cell Power,[3]; 10%:90% (NHF^TGF-β:H35),5.30 fJ/hr/NHF
same,Enhancement in Toroid Power,[3]; 10%:90% (NHF^TGF-β:H35),4.41 pJ/h
same,Toroid Power,[3]; 10%:90% (NHF^TGF-β:H35),5.30 pJ/h
same,Fold Increase in NHF Cell Power,"[3]; 10%:90% (NHF^TGF-β:H35), effects of TGF-β & hetero environment",22.1x
same,Enhancement in NHF Cell Power,[3]; 50%:50% (NHF^TGF-β:H35),0.58 fJ/hr/NHF
same,Enhancement in Toroid Power,[3]; 50%:50% (NHF^TGF-β:H35),1.16 pJ/h
same,Fold Increase in NHF Cell Power,[3]; 50%:50% (NHF^TGF-β:H35),2.4x
same,Toroid Power,[3]; 50%:50% (NHF^TGF-β:H35),6.05 pJ/h
same,total cell power,"[3]; NHF^TGF-β1, about 1:10 mix, between four and eight hours",5.3 ± 1.32 fJ/h
same,peak cell power,"[3]; NHF^TGF-β1, about 1:20 mix",4.13 ± 1.22 fJ/h
same,"increase in cell power, heterotypic environment and TGF-β1","[3]; TGF-β1 treated NHFs with untreated H35s, enhanced power distributed to NHFs",22 ×
same,"increase in cell power, TGF-β1 treatment in conjunction with the heterotypic environment",[3]; compared to untreated NHFs in a homotypic toroid,greater than 22 times
same,"increase in NHF cell power, TGF-β1 treatment combined with heterotypic environment","[3]; compared to untreated NHFs in homotypic toroid, 10% NHFs: 90% H35s",about 22.1 fold
same,increase of NHF^TGF-β1 cell power in the heterotypic environment,[3]; versus NHF^TGF-β1 in homotypic environment,greater than 11 times
O=C(O)CN(CCN(CC(=O)O)CC(=O)O)CC(=O)O [EDTA],microtissue integrity,[4],disintegrated into monodispersed cells
